Laboratory results from US20150174273A1, “IMAGING AND THERAPEUTIC METHODS FOR TREATING PARATHYROID TUMORS” (EMORY UNIVERSITY, priority 2012, published 2015).

How the values were obtained:
[1] = system: primary human parathyroid cells; assay: 18F FACBC uptake assay; type: cell-based; conditions: preliminary experiments
Source text: BCH is L type transporter inhibitor (2-amino-2-norboranecarboxylic acid), MeAlB is an A type inhibitor (2-[methylamine]isobutric acid), ACS is a multiple amino acid transporter inhibitor (L-alanine, L-cystine, L-serine).
In certain embodiments, the disclosure contemplates methods of ^18F-FACBC Imaging. […] See McConathy et al., Appl Radiat Isot. 2003; 58(6):657-66, hereby incorporated by reference. Parathormone is a peptide hormone, and the bioactive conformation includes a long helical dimer containing leucine residues. […] It is contemplated that parathyroid cells concentrate Anti-^18F-FACBC, and thus Anti-^18F-FACBC can be used as an imaging probe for PET imaging.

[2] = in vivo; cited from earlier work
[3] = system: FRs on freshly excised, non-cultured human PT adenoma cells; assay: 99mTc-EC20 uptake by PT adenoma cell slurry with or without cold folate block; type: cell-based; conditions: for 99mTc-EC20 uptake, not blocked: absence of cold folate; for 99mTc-EC20 uptake, blocked: pre-incubation with cold folate (200 μM)
Experimental: Some aliquots of cells were blocked by pre-incubation with cold folate (FA) (yellow bars).

Row | SMILES | uptake of Anti-18F-FACBC by primary human parathyroid cells [1] | pancreatic concentration [2] | renal excretion [2] | 99mTc-EC20 uptake, not blocked ([3]; 20 μl PT adenoma cell slurry) [% dose/20 μl tissue prep] | 99mTc-EC20 uptake, blocked ([3]; 20 μl PT adenoma cell slurry) [% dose/20 μl tissue prep] | 99mTc-EC20 uptake, not blocked ([3]; 70 μl PT adenoma cell slurry) [% dose/70 μl tissue prep] | 99mTc-EC20 uptake, blocked ([3]; 70 μl PT adenoma cell slurry) [% dose/70 μl tissue prep]
1 | NC1(C(=O)O)CC([18F])C1 (stereo not drawn) [Anti-^18F-FACBC, anti-1-amino-^18F-flurocyclobutane-1 carboxylic acid] | significant specific uptake | high pancreatic concentration | low renal excretion |  |  |  | 
2 | [NH-][C@@H](CNC(=O)CC[C@@H](NC(=O)c1ccc(NCc2cnc3nc(N)[nH]c(=O)c3n2)cc1)C(=O)O)C(=O)[N-][C@@H](CC(=O)O)C(=O)[N-][C@@H](C[S-])C(=O)O.[O]=[Tc+4] [99mTc-EC20] |  |  |  | 3.4±0.4 | 1.9±0.2 | 10.9±0.9 | 5.7±0.3
